Experimental data: ChEMBL document CHEMBL5058645, “Data for DCP probe JNJ-6204” (2022)

Key:
[1] = target: Proto-oncogene tyrosine-protein kinase Src (Homo sapiens) (UniProt P12931); assay: cSRC(h) Kinase panel; conditions: Compound concentration 1.0 uM, tested as the 2H-labelled form
[2] = target: Casein kinase I isoform delta (Homo sapiens, UniProt P48730); conditions: Compound concentration 1.0 uM
[3] = target: Phosphatidylinositol 5-phosphate 4-kinase type-2 alpha (Homo sapiens) (UniProt P48426); assay: PIP4K2a(h) Kinase panel; conditions: Compound concentration 1.0 uM, tested as the 2H-labelled form
[4] = target: Sodium-dependent dopamine transporter (Homo sapiens, UniProt Q01959); conditions: Compound concentration 10.0 uM, tested as the 2H-labelled form
[5] = target: Ribosomal protein S6 kinase alpha-1 (Homo sapiens) (UniProt Q15418); assay: Rsk1(h) Kinase panel; conditions: Compound concentration 1.0 uM, tested as the 2H-labelled form
[6] = target: Epithelial discoidin domain-containing receptor 1 (Homo sapiens) (UniProt Q08345); assay: DDR1(h) Kinase panel; conditions: Compound concentration 1.0 uM, tested as the 2H-labelled form
[7] = target: Serine/threonine-protein kinase tousled-like 2 (Homo sapiens) (UniProt Q86UE8); assay: TLK2(h) Kinase panel; conditions: Compound concentration 1.0 uM, tested as the 2H-labelled form
[8] = target: Ephrin type-A receptor 8 (Homo sapiens) (UniProt P29322); assay: EphA8(h) Kinase panel; conditions: Compound concentration 1.0 uM, tested as the 2H-labelled form
[9] = target: Serine/threonine-protein kinase 33 (Homo sapiens) (UniProt Q9BYT3); assay: STK33(h) Kinase panel; conditions: Compound concentration 1.0 uM, tested as the 2H-labelled form
[10] = target: Vascular endothelial growth factor receptor 1 (Homo sapiens) (UniProt P17948); assay: Flt1(h) Kinase panel; conditions: Compound concentration 1.0 uM, tested as the 2H-labelled form
[11] = target: Tyrosine-protein kinase BTK (Homo sapiens) (UniProt Q06187); assay: BTK(h) Kinase panel; conditions: Compound concentration 1.0 uM, tested as the 2H-labelled form
[12] = target: Casein kinase I isoform gamma-1 (Homo sapiens) (UniProt Q9HCP0); assay: CK1gamma1(h) Kinase panel; conditions: Compound concentration 1.0 uM, tested as the 2H-labelled form
[13] = target: Tyrosine-protein kinase JAK3 (Homo sapiens) (UniProt P52333); assay: JAK3(h) Kinase panel; conditions: Compound concentration 1.0 uM, tested as the 2H-labelled form
[14] = target: Tyrosine-protein kinase HCK (Homo sapiens) (UniProt P08631); assay: Hck(h) activated Kinase panel; conditions: Compound concentration 1.0 uM, tested as the 2H-labelled form
[15] = target: Tau-tubulin kinase 1 (Homo sapiens) (UniProt Q5TCY1); assay: TTBK1(h) Kinase panel; conditions: Compound concentration 1.0 uM, tested as the 2H-labelled form
[16] = target: Mitogen-activated protein kinase 8 (Homo sapiens) (UniProt P45983); assay: JNK1alpha1(h) Kinase panel; conditions: Compound concentration 1.0 uM, tested as the 2H-labelled form
[17] = target: Fibroblast growth factor receptor 1 (Homo sapiens) (UniProt P11362); assay: FGFR1(h) Kinase panel; conditions: Compound concentration 1.0 uM, tested as the 2H-labelled form
[18] = target: Serine/threonine-protein kinase ULK2 (Homo sapiens) (UniProt Q8IYT8); assay: ULK2(h) Kinase panel; conditions: Compound concentration 1.0 uM, tested as the 2H-labelled form
[19] = target: Casein kinase I isoform epsilon (Homo sapiens, UniProt P49674); assay: CK1epsilon(h) Kinase panel; conditions: Compound concentration 1.0 uM, tested as the 2H-labelled form
[20] = target: eIF-2-alpha kinase GCN2 (Homo sapiens) (UniProt Q9P2K8); assay: GCN2(h) Kinase panel; conditions: Compound concentration 1.0 uM, tested as the 2H-labelled form
[21] = target: Beta-adrenergic receptor kinase 1 (Homo sapiens) (UniProt P25098); assay: GRK2(h) Kinase panel; conditions: Compound concentration 1.0 uM, tested as the 2H-labelled form
[22] = target: Mitogen-activated protein kinase kinase kinase 10 (Homo sapiens) (UniProt Q02779); assay: MLK2(h) Kinase panel; conditions: Compound concentration 1.0 uM, tested as the 2H-labelled form
[23] = target: Myosin light chain kinase 2, skeletal/cardiac muscle (Homo sapiens) (UniProt Q9H1R3); assay: MYLK2(h) Kinase panel; conditions: Compound concentration 1.0 uM, tested as the 2H-labelled form
[24] = target: Calcium/calmodulin-dependent protein kinase type 1G (Homo sapiens) (UniProt Q96NX5); assay: CaMKIgamma(h) Kinase panel; conditions: Compound concentration 1.0 uM, tested as the 2H-labelled form
[25] = target: Vascular endothelial growth factor receptor 2 (Homo sapiens) (UniProt P35968); assay: KDR(h) Kinase panel; conditions: Compound concentration 1.0 uM, tested as the 2H-labelled form
[26] = target: Tyrosine-protein kinase Lck (Homo sapiens) (UniProt P06239); assay: Lck(h) activated Kinase panel; conditions: Compound concentration 1.0 uM, tested as the 2H-labelled form
[27] = target: Serine/threonine-protein kinase LATS2 (Homo sapiens) (UniProt Q9NRM7); assay: LATS2(h) Kinase panel; conditions: Compound concentration 1.0 uM, tested as the 2H-labelled form
[28] = target: Sodium-dependent serotonin transporter (Homo sapiens) (UniProt P31645); conditions: Compound concentration 10.0 uM, tested as the 2H-labelled form
[29] = target: Dual specificity protein kinase CLK1 (Homo sapiens) (UniProt P49759); assay: CLK1(h) Kinase panel; conditions: Compound concentration 1.0 uM, tested as the 2H-labelled form
[30] = target: Casein kinase I isoform alpha (Homo sapiens, UniProt P48729); assay: CK1alpha(h) Kinase panel; conditions: Compound concentration 1.0 uM, tested as the 2H-labelled form
[31] = target: Tyrosine-protein kinase Lyn (Homo sapiens) (UniProt P07948); assay: Lyn(h) Kinase panel; conditions: Compound concentration 1.0 uM, tested as the 2H-labelled form
[32] = target: Histamine H4 receptor (Homo sapiens) (UniProt Q9H3N8); conditions: Compound concentration 10.0 uM, tested as the 2H-labelled form
[33] = target: Glycogen synthase kinase-3 beta (Homo sapiens) (UniProt P49841); assay: GSK3β(h) Kinase panel; conditions: Compound concentration 1.0 uM, tested as the 2H-labelled form
[34] = target: Serine/threonine-protein kinase Nek9 (Homo sapiens) (UniProt Q8TD19); assay: NEK9(h) Kinase panel; conditions: Compound concentration 1.0 uM, tested as the 2H-labelled form
[35] = target: Casein kinase II subunit alpha' (Homo sapiens) (UniProt P19784); assay: CK2alpha2(h) Kinase panel; conditions: Compound concentration 1.0 uM, tested as the 2H-labelled form
[36] = target: MAP/microtubule affinity-regulating kinase 3 (Homo sapiens) (UniProt P27448); assay: MARK3(h) Kinase panel; conditions: Compound concentration 1.0 uM, tested as the 2H-labelled form
[37] = target: SRSF protein kinase 3 (Homo sapiens) (UniProt Q9UPE1); assay: MSSK1(h) Kinase panel; conditions: Compound concentration 1.0 uM, tested as the 2H-labelled form
[38] = target: Serine/threonine-protein kinase tousled-like 1 (Homo sapiens) (UniProt Q9UKI8); assay: TLK1(h) Kinase panel; conditions: Compound concentration 1.0 uM, tested as the 2H-labelled form
[39] = target: 5-hydroxytryptamine receptor 7 (Homo sapiens) (UniProt P34969); conditions: Compound concentration 10.0 uM, tested as the 2H-labelled form
[40] = target: Tyrosine-protein kinase Fes/Fps (Homo sapiens) (UniProt P07332); assay: Fes(h) Kinase panel; conditions: Compound concentration 1.0 uM, tested as the 2H-labelled form
[41] = target: Histamine H1 receptor (Homo sapiens) (UniProt P35367); conditions: Compound concentration 10.0 uM, tested as the 2H-labelled form
[42] = target: D(4) dopamine receptor (Homo sapiens) (UniProt P21917); conditions: Compound concentration 10.0 uM, tested as the 2H-labelled form
[43] = target: Calcium/calmodulin-dependent protein kinase type 1D (Homo sapiens) (UniProt Q8IU85); assay: CaMKIdelta(h) Kinase panel; conditions: Compound concentration 1.0 uM, tested as the 2H-labelled form
[44] = target: Discoidin domain-containing receptor 2 (Homo sapiens) (UniProt Q16832); assay: DDR2(h) Kinase panel; conditions: Compound concentration 1.0 uM, tested as the 2H-labelled form
[45] = target: Dual specificity mitogen-activated protein kinase kinase 1 (Homo sapiens) (UniProt Q02750); assay: MEK1(h) Kinase panel; conditions: Compound concentration 1.0 uM, tested as the 2H-labelled form
[46] = target: Mitogen-activated protein kinase kinase kinase 2 (Homo sapiens) (UniProt Q9Y2U5); assay: MEKK2(h) Kinase panel; conditions: Compound concentration 1.0 uM, tested as the 2H-labelled form
[47] = target: Dual specificity protein kinase TTK (Homo sapiens) (UniProt P33981); assay: TTK(h) Kinase panel; conditions: Compound concentration 1.0 uM, tested as the 2H-labelled form
[48] = target: Casein kinase I isoform gamma-3 (Homo sapiens) (UniProt Q9Y6M4); assay: CK1gamma3(h) Kinase panel; conditions: Compound concentration 1.0 uM, tested as the 2H-labelled form
[49] = target: Cyclin-dependent kinase 12 (Homo sapiens) (UniProt Q9NYV4); assay: CDK12/cyclinK(h) Kinase panel; conditions: Compound concentration 1.0 uM, tested as the 2H-labelled form
[50] = target: Mitogen-activated protein kinase kinase kinase kinase 3 (Homo sapiens) (UniProt Q8IVH8); assay: MAP4K3(h) Kinase panel; conditions: Compound concentration 1.0 uM, tested as the 2H-labelled form
[51] = target: Serine/threonine-protein kinase WNK1 (Homo sapiens) (UniProt Q9H4A3); assay: WNK1(h) Kinase panel; conditions: Compound concentration 1.0 uM, tested as the 2H-labelled form
[52] = target: Tyrosine-protein kinase Fyn (Homo sapiens) (UniProt P06241); assay: Fyn(h) Kinase panel; conditions: Compound concentration 1.0 uM, tested as the 2H-labelled form

Serine/threonine-protein kinase Nek9 (Homo sapiens), sequence (Q8TD19 whole entry): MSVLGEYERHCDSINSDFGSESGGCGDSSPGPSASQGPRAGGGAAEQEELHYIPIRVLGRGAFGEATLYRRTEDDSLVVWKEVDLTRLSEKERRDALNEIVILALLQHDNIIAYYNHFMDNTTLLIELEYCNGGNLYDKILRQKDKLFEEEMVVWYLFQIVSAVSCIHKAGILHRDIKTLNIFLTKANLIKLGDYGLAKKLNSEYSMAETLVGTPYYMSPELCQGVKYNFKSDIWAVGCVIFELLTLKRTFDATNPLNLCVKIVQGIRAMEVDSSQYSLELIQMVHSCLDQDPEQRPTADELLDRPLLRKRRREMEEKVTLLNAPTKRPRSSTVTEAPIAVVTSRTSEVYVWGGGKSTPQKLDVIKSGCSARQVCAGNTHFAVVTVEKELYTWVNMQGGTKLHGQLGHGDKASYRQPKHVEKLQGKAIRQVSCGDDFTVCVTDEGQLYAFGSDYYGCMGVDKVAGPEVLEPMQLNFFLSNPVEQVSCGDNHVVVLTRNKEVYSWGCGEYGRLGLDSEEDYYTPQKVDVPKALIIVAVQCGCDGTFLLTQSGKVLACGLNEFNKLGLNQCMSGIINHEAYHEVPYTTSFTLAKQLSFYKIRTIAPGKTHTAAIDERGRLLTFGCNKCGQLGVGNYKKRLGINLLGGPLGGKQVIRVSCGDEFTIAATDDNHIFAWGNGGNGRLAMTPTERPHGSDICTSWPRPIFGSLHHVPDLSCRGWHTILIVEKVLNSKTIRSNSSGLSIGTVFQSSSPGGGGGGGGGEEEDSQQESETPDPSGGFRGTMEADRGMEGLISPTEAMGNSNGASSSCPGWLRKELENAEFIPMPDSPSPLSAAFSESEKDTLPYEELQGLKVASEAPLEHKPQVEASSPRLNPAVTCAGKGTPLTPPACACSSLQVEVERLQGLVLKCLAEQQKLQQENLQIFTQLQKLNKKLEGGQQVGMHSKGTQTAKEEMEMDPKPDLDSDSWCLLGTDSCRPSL
Vascular endothelial growth factor receptor 2 (Homo sapiens), sequence (P35968 whole entry): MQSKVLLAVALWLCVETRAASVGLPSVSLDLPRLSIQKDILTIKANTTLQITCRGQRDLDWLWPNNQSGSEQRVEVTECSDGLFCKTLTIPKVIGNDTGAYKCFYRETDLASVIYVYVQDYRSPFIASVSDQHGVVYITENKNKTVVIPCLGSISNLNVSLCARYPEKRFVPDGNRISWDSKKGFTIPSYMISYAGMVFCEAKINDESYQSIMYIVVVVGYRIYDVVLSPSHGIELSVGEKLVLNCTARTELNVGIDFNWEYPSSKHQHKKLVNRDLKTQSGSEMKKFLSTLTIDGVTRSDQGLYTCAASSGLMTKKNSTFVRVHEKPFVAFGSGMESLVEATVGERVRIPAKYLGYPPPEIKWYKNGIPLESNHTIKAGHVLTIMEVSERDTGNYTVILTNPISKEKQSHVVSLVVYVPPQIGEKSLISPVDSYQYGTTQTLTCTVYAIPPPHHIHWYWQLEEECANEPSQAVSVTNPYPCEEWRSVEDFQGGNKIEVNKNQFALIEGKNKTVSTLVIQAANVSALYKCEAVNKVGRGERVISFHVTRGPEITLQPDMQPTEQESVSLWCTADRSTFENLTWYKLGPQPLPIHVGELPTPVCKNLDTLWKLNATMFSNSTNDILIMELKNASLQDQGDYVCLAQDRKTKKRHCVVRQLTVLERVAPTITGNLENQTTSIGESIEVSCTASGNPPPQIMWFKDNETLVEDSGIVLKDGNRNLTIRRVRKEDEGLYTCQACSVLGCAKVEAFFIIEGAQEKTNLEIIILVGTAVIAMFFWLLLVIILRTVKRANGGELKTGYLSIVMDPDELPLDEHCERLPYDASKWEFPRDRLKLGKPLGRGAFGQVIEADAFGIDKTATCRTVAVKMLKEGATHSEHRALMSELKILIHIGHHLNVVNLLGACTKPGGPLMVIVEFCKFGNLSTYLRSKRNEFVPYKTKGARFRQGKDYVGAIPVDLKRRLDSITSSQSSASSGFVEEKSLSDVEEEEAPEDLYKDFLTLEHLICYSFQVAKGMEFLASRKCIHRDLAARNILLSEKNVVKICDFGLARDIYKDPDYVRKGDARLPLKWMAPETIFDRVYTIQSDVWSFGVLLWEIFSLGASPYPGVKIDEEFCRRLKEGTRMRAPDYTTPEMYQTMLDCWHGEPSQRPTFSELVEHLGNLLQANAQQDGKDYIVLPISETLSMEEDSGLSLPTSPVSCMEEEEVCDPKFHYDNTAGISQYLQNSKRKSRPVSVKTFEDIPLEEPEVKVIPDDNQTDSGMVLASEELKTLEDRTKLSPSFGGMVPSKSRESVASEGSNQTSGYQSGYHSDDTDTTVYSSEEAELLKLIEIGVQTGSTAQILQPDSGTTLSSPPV
Beta-adrenergic receptor kinase 1 (Homo sapiens), sequence (P25098 whole entry): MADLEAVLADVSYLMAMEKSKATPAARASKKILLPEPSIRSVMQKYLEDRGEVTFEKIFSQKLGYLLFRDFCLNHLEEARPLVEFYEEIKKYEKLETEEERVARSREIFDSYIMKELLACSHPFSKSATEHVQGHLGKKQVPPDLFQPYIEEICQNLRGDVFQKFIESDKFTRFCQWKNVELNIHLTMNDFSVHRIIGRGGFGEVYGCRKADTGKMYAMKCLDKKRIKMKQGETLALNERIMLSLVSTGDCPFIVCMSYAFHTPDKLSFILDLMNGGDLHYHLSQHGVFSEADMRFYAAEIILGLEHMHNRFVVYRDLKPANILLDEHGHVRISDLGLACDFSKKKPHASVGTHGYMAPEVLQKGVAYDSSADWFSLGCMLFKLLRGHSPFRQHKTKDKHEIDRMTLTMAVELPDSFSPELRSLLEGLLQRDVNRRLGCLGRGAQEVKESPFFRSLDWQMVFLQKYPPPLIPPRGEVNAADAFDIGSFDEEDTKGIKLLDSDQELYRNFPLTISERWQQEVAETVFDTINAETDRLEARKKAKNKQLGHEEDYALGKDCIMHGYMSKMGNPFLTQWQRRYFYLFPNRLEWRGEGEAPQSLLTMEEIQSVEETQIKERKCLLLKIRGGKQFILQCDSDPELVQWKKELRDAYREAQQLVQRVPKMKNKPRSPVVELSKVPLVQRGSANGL
Tyrosine-protein kinase Lck (Homo sapiens), sequence (P06239 2-509 limits assumed): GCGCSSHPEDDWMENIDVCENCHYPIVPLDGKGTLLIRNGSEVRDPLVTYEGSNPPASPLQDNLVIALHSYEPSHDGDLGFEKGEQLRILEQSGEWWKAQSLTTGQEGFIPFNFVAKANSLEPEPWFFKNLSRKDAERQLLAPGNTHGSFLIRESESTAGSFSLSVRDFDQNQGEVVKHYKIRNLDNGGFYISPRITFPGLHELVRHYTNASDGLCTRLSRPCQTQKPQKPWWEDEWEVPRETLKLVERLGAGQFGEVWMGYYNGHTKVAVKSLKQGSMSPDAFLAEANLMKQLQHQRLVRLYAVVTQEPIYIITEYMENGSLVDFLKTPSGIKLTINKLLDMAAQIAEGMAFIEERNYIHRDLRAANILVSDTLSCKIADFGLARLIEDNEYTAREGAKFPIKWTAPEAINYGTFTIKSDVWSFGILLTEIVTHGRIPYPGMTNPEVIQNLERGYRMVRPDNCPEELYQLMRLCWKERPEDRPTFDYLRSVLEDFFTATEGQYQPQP
Mitogen-activated protein kinase kinase kinase 2 (Homo sapiens), sequence (Q9Y2U5 whole entry): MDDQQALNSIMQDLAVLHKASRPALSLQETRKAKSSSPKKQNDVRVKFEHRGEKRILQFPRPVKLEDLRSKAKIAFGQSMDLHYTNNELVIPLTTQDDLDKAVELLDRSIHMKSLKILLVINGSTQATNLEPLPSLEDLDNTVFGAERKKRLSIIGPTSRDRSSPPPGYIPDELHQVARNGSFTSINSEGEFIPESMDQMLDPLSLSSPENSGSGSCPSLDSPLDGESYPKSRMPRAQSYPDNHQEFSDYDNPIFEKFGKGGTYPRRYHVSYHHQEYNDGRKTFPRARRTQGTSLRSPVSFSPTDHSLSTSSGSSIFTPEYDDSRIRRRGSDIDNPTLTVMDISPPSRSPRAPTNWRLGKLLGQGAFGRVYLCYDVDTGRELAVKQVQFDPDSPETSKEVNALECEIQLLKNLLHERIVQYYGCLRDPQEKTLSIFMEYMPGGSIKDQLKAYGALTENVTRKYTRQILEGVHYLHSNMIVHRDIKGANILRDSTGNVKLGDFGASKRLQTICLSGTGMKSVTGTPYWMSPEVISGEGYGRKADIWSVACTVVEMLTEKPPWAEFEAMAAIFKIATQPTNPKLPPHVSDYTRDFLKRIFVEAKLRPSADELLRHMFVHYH
Calcium/calmodulin-dependent protein kinase type 1G (Homo sapiens), sequence (Q96NX5 whole entry): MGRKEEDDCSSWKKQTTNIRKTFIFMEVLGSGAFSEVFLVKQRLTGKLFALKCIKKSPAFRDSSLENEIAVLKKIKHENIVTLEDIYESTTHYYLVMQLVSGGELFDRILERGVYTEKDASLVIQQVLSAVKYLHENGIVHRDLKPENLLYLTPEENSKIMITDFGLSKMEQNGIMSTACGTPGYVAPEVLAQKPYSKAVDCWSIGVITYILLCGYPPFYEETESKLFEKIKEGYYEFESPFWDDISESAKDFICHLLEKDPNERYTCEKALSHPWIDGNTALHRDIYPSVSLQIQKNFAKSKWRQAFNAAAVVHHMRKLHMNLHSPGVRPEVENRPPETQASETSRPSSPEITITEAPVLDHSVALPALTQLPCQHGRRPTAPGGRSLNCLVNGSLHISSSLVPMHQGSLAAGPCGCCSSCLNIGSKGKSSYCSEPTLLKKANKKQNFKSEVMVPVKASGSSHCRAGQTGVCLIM
Casein kinase I isoform delta, sequence (P48730 whole entry, looked up, canonical isoform): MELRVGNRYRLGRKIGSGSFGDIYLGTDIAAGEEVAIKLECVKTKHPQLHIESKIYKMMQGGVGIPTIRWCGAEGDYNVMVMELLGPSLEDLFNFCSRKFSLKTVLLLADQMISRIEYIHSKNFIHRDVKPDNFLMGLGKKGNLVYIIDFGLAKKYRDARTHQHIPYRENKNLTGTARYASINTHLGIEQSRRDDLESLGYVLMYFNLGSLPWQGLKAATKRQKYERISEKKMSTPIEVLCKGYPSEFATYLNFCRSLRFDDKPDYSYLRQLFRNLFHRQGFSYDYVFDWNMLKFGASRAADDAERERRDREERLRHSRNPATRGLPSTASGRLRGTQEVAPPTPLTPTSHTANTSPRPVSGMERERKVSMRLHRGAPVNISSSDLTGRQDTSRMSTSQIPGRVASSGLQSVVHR

inhibition [1]: 15% | inhibition [2]: 105% | inhibition [3]: 0% | inhibition [4]: 43.8% | inhibition [5]: 9% | inhibition [6]: 11% | inhibition [7]: 12% | inhibition [8]: 2% | inhibition [9]: 5% | inhibition [10]: 7% | inhibition [11]: -4% | inhibition [12]: 4% | inhibition [13]: 0% | inhibition [14]: 9% | inhibition [15]: 19% | inhibition [16]: -6% | inhibition [17]: 5% | inhibition [18]: 17% | inhibition [19]: 96% | inhibition [20]: -6% | inhibition [21]: -8% | inhibition [22]: 8% | inhibition [23]: 23% | inhibition [24]: 4% | inhibition [25]: 2% | inhibition [26]: -10% | inhibition [27]: 12% | inhibition [28]: 2.66% | inhibition [29]: 6% | inhibition [30]: 73% | inhibition [31]: 21% | inhibition [32]: 24.7% | inhibition [33]: 4% | inhibition [35]: 4% | inhibition [36]: -2% | inhibition [37]: -8% | inhibition [38]: 6% | inhibition [39]: -3.57% | inhibition [40]: 14% | inhibition [41]: -9.94% | inhibition [42]: -5.66% | inhibition [43]: -1% | inhibition [44]: 8% | inhibition [45]: 4% | inhibition [46]: 5% | inhibition [47]: 10% | inhibition [48]: -2% | inhibition [49]: -2% | inhibition [50]: -7% | inhibition [51]: 7% | inhibition [52]: 20%
Compound: CC1(C)Cn2nc(-c3ccc(F)cn3)c(-c3ccnc4[nH]ncc34)c2CO1
inhibition [34]: 6%
